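Compound exposure: 48 hours, 5 concentrations, 96-well plates. Here, GI50 denotes the concentration required for 50% inhibition of growth.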 Active and inactive are the calls of the source. Cut-off read from the data, not from the text of the source: active = GI50 up to about 1.1 µM and inactive = higher.
Tests used:
Test in all cases: growth of human tumour cells (NCI), 48 h
[1] = system: NCI-H460
[2] = system: NCI-H23
[3] = system: SW-620
[4] = system: HOP-92
[5] = system: OVCAR-5
[6] = system: Malme-3M
[7] = system: A498
[8] = system: IGROV-1
[9] = system: M14
[10] = system: SK-MEL-5
[11] = system: ACHN
[12] = system: CCRF-CEM
[13] = system: SK-OV-3
[14] = system: EKVX
[15] = system: 786-0
[16] = system: UACC-62
[17] = system: SR
[18] = system: SN12C
[19] = system: NCI-H226

Measured: GI50

C/C(CC(=O)Nc1ccc(Cl)cc1)=N\NC(N)=S
inactive: [1] 45.5 µM | [2] > 100 µM | [3] > 100 µM | [4] > 100 µM | [5] > 100 µM | [6] > 100 µM | [7] > 100 µM | [8] > 100 µM | [9] 6.47 µM | [10] 26.1 µM | [11] 9.14 µM | [12] 30 µM | [13] > 100 µM | [14] > 100 µM | [15] > 100 µM | [16] 4.95 µM

NCCn1cnc2nc(NC(=O)c3ccccc3)[nH]c(=O)c21
inactive: [1] > 100 µM | [2] > 100 µM | [3] > 100 µM | [4] > 100 µM | [5] > 100 µM | [6] > 100 µM | [17] > 100 µM | [18] > 100 µM | [7] > 100 µM | [8] > 100 µM | [11] > 100 µM | [19] > 100 µM | [14] > 100 µM | [15] > 100 µM

CC1(c2cccc3ccccc23)OC(=O)c2ccccc21 (stereo unspecified)
inactive: [1] 21.1 µM | [2] 16 µM | [3] 21 µM | [4] 13.5 µM | [5] 57.1 µM | [6] 20.7 µM | [18] 22 µM | [7] 21.5 µM | [8] 19.2 µM | [9] 18.2 µM | [10] 13.3 µM | [11] 20.3 µM | [19] 22.7 µM | [12] 14.3 µM | [13] 32.5 µM | [14] 30.1 µM | [15] 26.2 µM | [16] 12 µM

O=c1c2c(nc3n1CCC3)sc1c(O)c(Br)ccc12
inactive: [1] 16.4 µM | [2] 27 µM | [3] 12.5 µM | [4] > 100 µM | [5] 20.7 µM | [6] 17.5 µM | [17] 12.1 µM | [18] 16.4 µM | [7] 10.5 µM | [8] 24.1 µM | [9] > 100 µM | [10] 14.5 µM | [11] 14.6 µM | [19] 19.6 µM | [12] 15.5 µM | [13] 23.9 µM | [14] 23.9 µM | [15] 17.5 µM | [16] 17.4 µM

COc1ccc2c(c1OCC(=O)O)C(=O)C(CCC(=O)O)CC2 (stereo unspecified)
inactive: [1] > 100 µM | [2] > 100 µM | [3] > 100 µM | [18] > 100 µM | [7] > 100 µM | [8] > 100 µM | [9] > 100 µM | [10] > 100 µM | [11] > 100 µM | [12] > 100 µM | [13] > 100 µM | [14] > 100 µM | [15] > 100 µM | [16] > 100 µM

O=C(O)CCC1(Br)CCCCC(Br)C1=O (stereo unspecified)
inactive: [1] > 100 µM | [2] > 100 µM | [3] > 100 µM | [4] 32.7 µM | [5] > 100 µM | [6] > 100 µM | [18] > 100 µM | [7] > 100 µM | [8] > 100 µM | [9] > 100 µM | [10] > 100 µM | [11] > 100 µM | [19] > 100 µM | [12] 95.3 µM | [13] > 100 µM | [14] > 100 µM | [15] > 100 µM | [16] > 100 µM

CC(=O)Nc1ccc(C(=O)N2N=C(C)/C(=C/c3ccccc3O)C2=O)cc1
inactive: [1] > 100 µM | [2] > 100 µM | [3] > 100 µM | [5] > 100 µM | [6] > 100 µM | [17] > 100 µM | [18] > 100 µM | [9] > 100 µM | [10] > 100 µM | [11] > 100 µM | [19] > 100 µM | [12] > 100 µM | [14] > 100 µM | [15] > 100 µM

CCCCCCCCCCCCCc1nnn[nH]1
inactive: [1] 20.6 µM | [2] 24.4 µM | [3] 20 µM | [4] 15.6 µM | [5] 18.5 µM | [6] 18.1 µM | [18] 18.8 µM | [7] 17 µM | [8] 21.2 µM | [9] 17.5 µM | [10] 17.7 µM | [11] 19.1 µM | [19] 22.2 µM | [12] 18.8 µM | [13] 24.7 µM | [14] 23.4 µM | [15] 17.3 µM | [16] 18 µM

C[C@]12Cc3conc3C(O)=C1CC[C@@H]1C2CC[C@@]2(C)C1CC[C@@H]2O (stereo partly specified)
inactive: [1] 12.6 µM | [2] 18.1 µM | [3] 15.5 µM | [4] 22.8 µM | [5] 50.2 µM | [6] 9.4 µM | [18] 28.9 µM | [7] 9.12 µM | [8] 26 µM | [9] 12.4 µM | [10] 10.5 µM | [11] 23.3 µM | [19] 18 µM | [12] 7.62 µM | [13] 31.3 µM | [14] 17.5 µM | [15] 16.1 µM | [16] 4.99 µM

COC(=O)NC(=O)c1cn(C2CCCCC2)c(=O)[nH]c1=O
inactive: [1] > 100 µM | [2] > 100 µM | [3] > 100 µM | [4] > 100 µM | [5] > 100 µM | [6] > 100 µM | [17] > 100 µM | [18] > 100 µM | [7] > 100 µM | [8] > 100 µM | [9] > 100 µM | [10] > 100 µM | [11] > 100 µM | [19] > 100 µM | [12] > 100 µM | [13] > 100 µM | [15] > 100 µM | [16] > 100 µM

Cc1ccc(S(=O)(=O)c2ccc(N)cc2)cc1
inactive: [1] > 100 µM | [2] > 100 µM | [3] > 100 µM | [5] > 100 µM | [6] > 100 µM | [7] > 100 µM | [8] > 100 µM | [9] > 100 µM | [10] > 100 µM | [11] > 100 µM | [19] > 10 µM | [12] > 100 µM | [13] > 100 µM | [14] > 100 µM | [15] > 100 µM | [16] > 100 µM

C/C(=N\NC(N)=O)c1sc(-c2nc(C)c(/C(C)=N/NC(N)=O)s2)nc1C
inactive: [1] 78.7 µM | [2] > 100 µM | [4] > 100 µM | [5] > 100 µM | [6] > 100 µM | [17] 22.6 µM | [18] > 100 µM | [7] > 100 µM | [8] > 100 µM | [9] > 100 µM | [10] > 100 µM | [11] > 100 µM | [19] > 100 µM | [12] 90.4 µM | [13] > 100 µM | [14] 21.5 µM | [15] > 100 µM | [16] > 100 µM

O=[N+]([O-])c1cc(I)cc(/C=N/NS(=O)(=O)c2ccc(Cl)cc2)c1O
inactive: [1] 19.9 µM | [2] 16.3 µM | [3] 27.6 µM | [4] 20.5 µM | [5] 25 µM | [6] 22 µM | [17] 21.4 µM | [18] 23.7 µM | [7] 22.9 µM | [8] 20.3 µM | [9] 25.2 µM | [10] 18 µM | [11] 22.8 µM | [12] 25.4 µM | [13] 24.7 µM | [14] 32.6 µM | [15] 21.1 µM | [16] 26.1 µM

COc1ccc(-c2nc3ncccn3c2-c2ccc(S(C)(=O)=O)cc2)cc1
inactive: [1] 66.4 µM | [2] > 100 µM | [3] > 100 µM | [4] 14.1 µM | [5] > 100 µM | [17] 47.6 µM | [18] > 100 µM | [8] 53.8 µM | [9] > 100 µM | [10] 48.2 µM | [11] > 100 µM | [12] > 100 µM | [13] 90.4 µM | [15] > 100 µM | [16] 53.6 µM

CC(=O)Oc1ccc2c(=O)c(C(C)=O)coc2c1
inactive: [1] > 100 µM | [2] > 100 µM | [3] > 100 µM | [4] 79.6 µM | [5] > 100 µM | [17] > 100 µM | [7] 58.1 µM | [8] > 100 µM | [9] > 100 µM | [10] > 100 µM | [11] > 100 µM | [19] 83.9 µM | [12] > 100 µM | [14] > 100 µM | [15] > 100 µM

c1nc2cscc2c2cscc12
inactive: [1] > 100 µM | [2] > 100 µM | [3] > 100 µM | [4] 14.7 µM | [5] > 100 µM | [6] > 100 µM | [17] > 100 µM | [18] > 100 µM | [7] > 100 µM | [8] > 100 µM | [9] > 100 µM | [11] > 100 µM | [19] 29.2 µM | [12] > 100 µM | [13] 37 µM | [15] > 100 µM | [16] > 100 µM

CC(C)(C)OC(=O)NCC(=O)OCc1ccccc1
inactive: [1] > 100 µM | [2] > 100 µM | [3] > 100 µM | [4] > 100 µM | [5] > 100 µM | [6] > 100 µM | [18] > 100 µM | [7] > 100 µM | [8] > 100 µM | [9] > 100 µM | [11] > 100 µM | [12] > 100 µM | [13] > 100 µM | [15] > 100 µM | [16] > 100 µM

Reference: ChEMBL document CHEMBL1201862, “PubChem BioAssay data set” (2004)
